Reference: patent US11292788B2, “IL-17 and IFN-gamma inhibition for the treatment of autoimmune diseases and chronic inflammation” (Immunic AG, priority 2017, dated 2022)
Like-named read-outs stand apart in the source and are kept apart here.

Key:
Type in all cases: cell-based
IL-17A = experiment: Cytokine assay: IL-17A production by human PBMC stimulated with PHA; details: IC50 class, read-out: IL-17A Inhib.
Method: (§1) Cytokine Assay: Analysis of Proliferation of and Cytokine Production by Human PBMC Stimulated with PHA
(§2) Peripheral blood mononuclear cells (PBMC) from healthy human donors were purified using Accuspin™ System-Histopaque-1077 (Sigma) according to the protocol recommended by the manufacturer. Purified PBMC were then washed twice with phosphate-buffered saline (PBS) and resuspended in RPMI1640 culture medium supplemented with 10% dialyzed heat inactivated fetal calf serum, 1.5 mM L-glutamine, 100 U penicillin/ml, and […] (all from PAN Biotech, Aidenbach, Germany). For stimulation, PBMC were seeded at 1×10^5 cells/well, activated with 2 μg/ml phytohaemagglutinin (PHA, Sigma) and incubated with the test compounds for 48 hours. IL-17A, IL-17F and INF-γ were then determined in the culture supernatant using a Luminex BioPlex system, following the manufacturer's instructions (BioRad, Munich, Germany). For screening, compounds were used at 10, 1, 0.1 and 0.01 μM. To determine the IC50, compounds were titrated semilogarithmically.
(§3) Cytokines were determined in the aforementioned culture supernatant using the following methods: IL-17A was measured using the human homodimer IL-17A ELISA Ready Set Go Kit from eBioscience (Frankfurt, Germany); IL-17F using the human IL-17F ELI-Pair from Hölzel DiagnosticaGmBH (Köln, Germany); and IFN-γ using the OptEIA human IFN-g ELISA from BD Bioscience (Heidelberg, Germany), all following the manufacturer's instructions.

IL-17F = experiment: Cytokine assay: IL-17F production by human PBMC stimulated with PHA; details: IC50 class, read-out: IL-17F Inhib.
Method: as §1, §2, §3

INF-γ = experiment: Cytokine assay: INF-γ production by human PBMC stimulated with PHA; details: IC50 class, read-out: IFN-gamma Inhib.
Method: as §1, §2, §3

IC50 (IL-17A; Homo sapiens, PBMC) [nM]	IC50 (IL-17F; Homo sapiens, PBMC) [nM]	IC50 (INF-γ; Homo sapiens, PBMC) [nM]	IC50 (IL-17A) [nM]	IC50 (IL-17F) [nM]	IC50 (INF-γ) [nM]	Compound
500 to 5000	≥ 5000	≥ 5000	–	–	–	C=CCCC(O)(CC1CC1)c1c(-c2c(F)cccc2Cl)noc1-c1cnn(CC(C)(C)O)c1C(F)(F)F (racemic) [Example 38, 2-[3-(2-chloro-6-fluorophenyl)-5-[1-(2-hydroxy-2-methylpropyl)-5-(trifluoromethyl)-1H-pyrazol-4-yl]-1,2-oxazol-4-yl]-1-cyclopropylhex-5-en-2-ol]
–	–	–	< 50	–	–	CCOC(=O)c1c(-c2c(F)cccc2Cl)noc1-c1cnn([C@H]2C[C@@](C)(O)C2)c1C(F)(F)F [Example 11, ethyl 3-(2-chloro-6-fluorophenyl)-5-[1-(3-hydroxy-3-methylcyclobutyl)-5-(trifluoromethyl)-1H-pyrazol-4-yl]-1,2-oxazole-4-carboxylate]
–	–	–	500 to 5000	500 to 5000	500 to 5000	COC(=O)c1c(-c2ccccc2Cl)noc1-c1cnn([C@H]2C[C@](C)(O)C2)c1C [Example 17, methyl 3-(2-chlorophenyl)-5-(1-(3-hydroxy-3-methylcyclobutyl)-5-methyl-1H-pyrazol-4-yl)isoxazole-4-carboxylate]
500 to 5000	500 to 5000	500 to 5000	–	–	–	COC(=O)c1c(-c2cccnc2OC)noc1-c1cnn(C[C@@H](C)O)c1C(F)(F)F [Example 21, methyl (R)-5-(1-(2-hydroxypropyl)-5-(trifluoromethyl)-1H-pyrazol-4-yl)-3-(2-methoxypyridin-3-yl)isoxazole-4-carboxylate]
50 to 500	50 to 500	< 50	–	–	–	COC(=O)c1c(-c2ccccc2Cl)noc1-c1cnn(C[C@H](C)O)c1C(F)(F)F [Example 22, methyl (S)-3-(2-chlorophenyl)-5-(1-(2-hydroxypropyl)-5-(trifluoromethyl)-1H-pyrazol-4-yl)isoxazole-4-carboxylate]
500 to 5000	50 to 500	50 to 500	–	–	–	COC(=O)c1c(-c2ccccc2Cl)noc1-c1cnn(C[C@H](C)O)c1C [Example 24, methyl (S)-3-(2-chlorophenyl)-5-(1-(2-hydroxypropyl)-5-methyl-1H-pyrazol-4-yl)isoxazole-4-carboxylate]
500 to 5000	500 to 5000	500 to 5000	–	–	–	COC(=O)c1c(-c2c(F)cccc2Cl)noc1-c1cnn(C2CC(O)C2)c1C(F)(F)F (stereo not drawn) [Example 28, methyl 3-(2-chloro-6-fluorophenyl)-5-(1-(3-hydroxycyclobutyl)-5-(trifluoromethyl)-1H-pyrazol-4-yl)isoxazole-4-carboxylate]
500 to 5000	500 to 5000	50 to 500	–	–	–	COC[C@]1(O)C[C@@H](n2ncc(-c3onc(-c4ccccc4Cl)c3C(=O)OC)c2C(F)(F)F)C1 [Example 29, methyl 3-(2-chlorophenyl)-5-(1-(3-hydroxy-3-(methoxymethyl)cyclobutyl)-5-(trifluoromethyl)-1H-pyrazol-4-yl)isoxazole-4-carboxylate]
50 to 500	500 to 5000	500 to 5000	–	–	–	Cc1nnc(-c2c(-c3c(F)cccc3Cl)noc2-c2cnn(CC(C)(C)O)c2C(F)(F)F)o1 [Example 30, 1-(4-(3-(2-chloro-6-fluorophenyl)-4-(5-methyl-1,3,4-oxadiazol-2-yl)isoxazol-5-yl)-5-(trifluoromethyl)-1H-pyrazol-1-yl)-2-methylpropan-2-ol]
500 to 5000	500 to 5000	500 to 5000	–	–	–	CC(=O)c1c(-c2c(F)cccc2Cl)noc1-c1cnn(CC(C)(C)O)c1C(F)(F)F [Example 34, 1-(3-(2-chloro-6-fluorophenyl)-5-(1-(2-hydroxy-2-methylpropyl)-5-(trifluoromethyl)-1H-pyrazol-4-yl)-1,2-oxazol-4-yl)ethanone]
500 to 5000	50 to 500	50 to 500	–	–	–	CC(C)(O)Cn1ncc(-c2onc(-c3c(F)cccc3Cl)c2C(=O)CC2CCC2)c1C(F)(F)F [Example 36, 1-[3-(2-chloro-6-fluorophenyl)-5-[1-(2-hydroxy-2-methylpropyl)-5-(trifluoromethyl)-1H-pyrazol-4-yl]-1,2-oxazol-4-yl]-2-cyclobutylethan-1-one]
50 to 500	50 to 500	50 to 500	–	–	–	C=CCCC(=O)c1c(-c2c(F)cccc2Cl)noc1-c1cnn(CC(C)(C)O)c1C(F)(F)F [Example 37, 1-[3-(2-chloro-6-fluorophenyl)-5-[1-(2-hydroxy-2-methylpropyl)-5-(trifluoromethyl)-1H-pyrazol-4-yl]-1,2-oxazol-4-yl]pent-4-en-1-one]
500 to 5000	≥ 5000	500 to 5000	–	–	–	COCC(=O)c1c(-c2c(F)cccc2Cl)noc1-c1cnn(CC(C)(C)O)c1C(F)(F)F [Example 39, 1-[3-(2-chloro-6-fluorophenyl)-5-[1-(2-hydroxy-2-methylpropyl)-5-(trifluoromethyl)-1H-pyrazol-4-yl]-1,2-oxazol-4-yl]-2-methoxyethan-1-one]
500 to 5000	500 to 5000	500 to 5000	–	–	–	COCC(=O)c1c(-c2c(F)cccc2Cl)noc1-c1cnn(C[C@@H](C)O)c1C(F)(F)F [Example 40, 1-[3-(2-chloro-6-fluorophenyl)-5-{1-[(2R)-2-hydroxypropyl]-5-(trifluoromethyl)-1H-pyrazol-4-yl}-1,2-oxazol-4-yl]-2-methoxyethan-1-one]
≥ 5000	≥ 5000	≥ 5000	–	–	–	CC(C)(O)Cn1ncc(-c2onc(-c3c(F)cccc3Cl)c2C(=O)NC2CCCC2)c1C(F)(F)F [Example 41, 3-(2-chloro-6-fluorophenyl)-N-cyclopentyl-5-(1-(2-hydroxy-2-methylpropyl)-5-(trifluoromethyl)-1H-pyrazol-4-yl)isoxazole-4-carboxamide]
≥ 5000	≥ 5000	≥ 5000	–	–	–	CC(C)(O)Cn1ncc(-c2onc(-c3c(F)cccc3Cl)c2C(=O)NC2CC2)c1C(F)(F)F [Example 42, 3-(2-chloro-6-fluorophenyl)-N-cyclopropyl-5-(1-(2-hydroxy-2-methylpropyl)-5-(trifluoromethyl)-1H-pyrazol-4-yl)isoxazole-4-carboxamide]
500 to 5000	500 to 5000	500 to 5000	–	–	–	CC(C)(O)Cn1ncc(-c2onc(-c3c(F)cccc3Cl)c2C(=O)NC2CCC2)c1C(F)(F)F [Example 43, 3-(2-chloro-6-fluorophenyl)-N-cyclobutyl-5-(1-(2-hydroxy-2-methylpropyl)-5-(trifluoromethyl)-1H-pyrazol-4-yl)isoxazole-4-carboxamide]
500 to 5000	500 to 5000	500 to 5000	–	–	–	C[C@@H](O)Cn1ncc(-c2onc(-c3c(F)cccc3Cl)c2C(=O)NC2CC2)c1C(F)(F)F [Example 45, 3-(2-chloro-6-fluorophenyl)-N-cyclopropyl-5-(1-((2R)-2-hydroxypropyl)-5-(trifluoromethyl)-1H-pyrazol-4-yl)isoxazole-4-carboxamide]
500 to 5000	50 to 500	50 to 500	–	–	–	C[C@@H](O)Cn1ncc(-c2onc(-c3c(F)cccc3Cl)c2C(=O)NC2CCC2)c1C(F)(F)F [Example 46, 3-(2-chloro-6-fluorophenyl)-N-cyclobutyl-5-(1-((2R)-2-hydroxypropyl)-5-(trifluoromethyl)-1H-pyrazol-4-yl)isoxazole-4-carboxamide]
50 to 500	50 to 500	50 to 500	–	–	–	Cc1c(-c2onc(-c3ccccc3Cl)c2C(=O)OC2COC2)cnn1C[C@H](C)O [Example 47, oxetan-3-yl 3-(2-chlorophenyl)-5-{1-[(2S)-2-hydroxypropyl]-5-methyl-1H-pyrazol-4-yl}-1,2-oxazole-4-carboxylate]
–	–	–	500 to 5000	500 to 5000	500 to 5000	C[C@]1(O)C[C@H](n2ncc(-c3onc(-c4ccccc4Cl)c3C(=O)OC3CC3)c2C(F)(F)F)C1 [Example 48, cyclopropyl 3-(2-chlorophenyl)-5-(1-(3-hydroxy-3-methylcyclobutyl)-5-(trifluoromethyl)-1H-pyrazol-4-yl)isoxazole-4-carboxylate]
–	–	–	< 50	–	–	Cc1c(-c2onc(-c3c(F)cccc3Cl)c2C(=O)OC2CC2)cnn1[C@H]1C[C@@](C)(O)C1 [Example 62, cyclopropyl 3-(2-chloro-6-fluorophenyl)-5-{5-methyl-1-[3-hydroxy-3-methylcyclobutyl]-1H-pyrazol-4-yl}-1,2-oxazole-4-carboxylate]
–	500 to 5000	500 to 5000	–	–	–	COCc1c(-c2c(F)cccc2Cl)noc1-c1cnn([C@H]2C[C@@](C)(O)C2)c1C [Example 70, 3-{4-[3-(2-chloro-6-fluorophenyl)-4-(methoxymethyl)-1,2-oxazol-5-yl]-5-methyl-1H-pyrazol-1-yl}-1-methylcyclobutan-1-ol]
–	500 to 5000	500 to 5000	–	–	–	COCc1c(-c2c(F)cccc2Cl)noc1-c1cnn([C@H]2C[C@](C)(O)C2)c1C [Example 71, 3-{4-[3-(2-chloro-6-fluorophenyl)-4-(methoxymethyl)-1,2-oxazol-5-yl]-5-methyl-1H-pyrazol-1-yl}-1-methylcyclobutan-1-ol]
